For orientation: LD50 means the dose at which mortality reaches 50%. One may read the ED50 as the dose that gives a 50% effect, or the effect in half of the subjects.

Like-named read-outs stand apart in the source and are kept apart here.

The text below walks through data of US4705797A, “N-(3,3-diphenylpropyl) aminoethyl esters of 1,4-dihydro-2,6-dimethyl-pyridine-3,5-dicarboxylic acid, compositions and use” (Recordati S.A., Chemical and Pharmaceutical Company, priority 1984, dated 1987).

In one data set the test system is hypertensive rats (SHR). Briefly: Antihypertensive activity in male hypertensive rats (SHR), systolic blood pressure by indirect tail-cuff method. The note with it: 0.5% methylcellulose, systolic blood pressure measured 1, 3, 5 and 7 hours after administration; for ED25: Rattus norvegicus, po, read-out: ED25 SHR os (antihypertensive activity); for ED25 SHR os (antihypertensive activity): oral. The data set is classed as in vivo, rat (SHR, Wister-Kyoto strain). The procedure:
The antihypertensive activity of the diesters according to the invention was evaluated in male hypertensive rats (SHR, Wister-Kyoto strain, 15-25 weeks old). The determination of blood pressure was performed by an indirect method [M. Gerald et al., Arzneim. Forsch., 18, 1825 (1968)]. The animals were prewarmed in a heating chamber at a temperature of from 35° C. to 37° C. for a period of 15 minutes before pressure determination. The compounds tested by oral route were dissolved or suspended in a 0.5% methylcellulose solution. Controls were given only the vehicle. Systolic blood pressure and heart rate were measured 1, 3, 5 and 7 hours after drug administration by means of a tail-cuff and a pulse transducer.

Data set [1] can be described thus: LD50 determined in the mouse, i.p. and per os (Weil method). The data set is classed as in vivo. The note with it: in vivo. The procedure: (§1) The LD50 of the compounds according to the invention was determined in the mouse, both i.p. and per os, according to the method described by C. S. Weil [Biometrics, 8, 249 (1952)].
Data set [2] concerns methacholine induced coronary spasm. As to the kind of experiment: Coronary dilating activity: antagonism of methacholine induced coronary spasm in anesthetized normotensive rats. Conditions: Rattus norvegicus, iv, i.v. infusion in water:dimethylformamide 9:1, normalization of ECG during methacholine infusion. In kind it is in vivo. How it is done: Coronary dilating activity was evaluated in anesthetized normotensive rats (weighing about 500 g), as the ability to antagonize methacholine induced coronary spasm. Rats were instrumented for methacholine infusion into the coronary ostium, while spastic activity was detected as ST segment elevation in D2 ECG recording [K. Sakai et al., J. Pharm. Meth., 5, 325 (1981)].
The compounds tested by i.v. infusion were dissolved in water: dimethylformamide (9:1 by volume). Activity was detected as normalization of ECG tracing after compounds administration during methacholine infusion.

The next data set deals with mouse. Briefly: LD50 determined in the mouse, i.p. and per os (Weil method). The data set is classed as in vivo. Conditions: for LD50 os: per os. How it is done: as §1

On to `COC(=O)C1=C(C)NC(C)=C(C(=O)OCCCN(C)CCC(c2ccccc2)c2ccccc2)C1c1cccc([N+](=O)[O-])c1` (stereo not drawn) [compound 2263, methyl N-(3,3-diphenylpropyl)-N-methyl-3-aminopropyl 1,4-dihydro-2,6-dimethyl-4-(3-nitrophenyl)-pyridine-3,5-dicarboxylate], for which the ED25 in the data set on hypertensive rats (SHR) was 3.4 mg/kg. Moreover, the LD50 was 171 mg/kg in data set [1] (ip, read-out: LD50 i.p.) and 254 mg/kg in data set [1] (po, per os, read-out: LD50 os). Besides, in data set [2], it took a dose of 0.197 mg/kg to reach the 50% effect level (ED50).
On to `COC(=O)C1=C(C)NC(C)=C(C(=O)OCCNCCC(c2ccccc2)c2ccccc2)C1c1cccc([N+](=O)[O-])c1` (stereo not drawn) [compound 2279, methyl N-(3,3-diphenylpropyl)-2-amino-ethyl 1,4-dihydro-2,6-dimethyl-4-(3-nitrophenyl)-pyridine-3,5-dicarboxylate], for which the ED25 in the data set on hypertensive rats (SHR) stood at 7.3 mg/kg. Besides, the 50% lethal dose (LD50) in data set [1] (ip, read-out: LD50 i.p.) came out at 121 mg/kg; in data set [1] (po, per os, read-out: LD50 os), 279 mg/kg. Besides, it took a dose of 0.297 mg/kg to reach the 50% effect level in data set [2] (ED50).
For `COC(=O)C1=C(C)NC(C)=C(C(=O)OC(C)CN(C)CCC(c2ccccc2)c2ccccc2)C1c1cccc([N+](=O)[O-])c1` (stereo not drawn) [compound 2288, methyl 1, N-dimethyl-N-(3,3-diphenylpropyl)-2-aminoethyl 1,4-dihydro-2,6-dimethyl-4-(3-nitrophenyl)-pyridine-3,5-dicarboxylate], in that order: 1.5 mg/kg, 72 mg/kg, 197 mg/kg and 0.046 mg/kg.
`CC1=C(C(=O)OCCN(C)CCC(c2ccccc2)c2ccccc2)C(c2cccc([N+](=O)[O-])c2)C(C(=O)OCC(C)C)=C(C)N1` (stereo not drawn) [compound 2329, isobutyl N-(3,3-diphenylpropyl)-N-methyl-2-aminoethyl 1,4-dihydro-2,6-dimethyl-4-(3-nitrophenyl)-pyridine-3,5-dicarboxylate]: in the data set with hypertensive rats (SHR), the “ED25 SHR os (antihypertensive activity)” value is on record as 3.4 mg/kg. Moreover, in the data set on mouse, the LD50 i.p. stood at 63 mg/kg and the LD50 os is recorded as 401 mg/kg.
In the case of `CC1=C(C(=O)OCCN(C)CCC(c2ccccc2)c2ccccc2)C(c2cccc([N+](=O)[O-])c2)C(C(=O)OC(C)C)=C(C)N1` (stereo not drawn) [compound 2350, isopropyl N-(3,3-diphenylpropyl)-N-methyl-2-aminoethyl 1,4-dihydro-2,6-dimethyl-4-(3-nitrophenyl)-pyridine-3,5-dicarboxylate], in the data set with hypertensive rats (SHR), the ED25 turned out to be 3 mg/kg. The LD50 in data set [1] (ip, read-out: LD50 i.p.) worked out at 50 mg/kg; in data set [1] (po, per os, read-out: LD50 os) it was 116 mg/kg.
On to `CC1=C(C(=O)OCCN(C)CCC(c2ccccc2)c2ccccc2)C(c2cccc([N+](=O)[O-])c2)C(C(=O)OCC(C)C)=C(C)N1` (stereo not drawn) [compound 2352, isobutyl N-(3,3-diphenylpropyl)-N-methyl-2-aminoethyl 1,4-dihydro-2,6-dimethyl-4-(3-nitrophenyl)-pyridine-3,5-dicarboxylate], for which the “ED25 SHR os (antihypertensive activity)” value in the data set with hypertensive rats (SHR) is 6.9 mg/kg. For the same molecule, in the data set with mouse, the LD50 i.p. is given as 222 mg/kg and the LD50 os came out at 2195 mg/kg.
For the molecule `COC(=O)C1=C(C)NC(C)=C(C(=O)OCCCCN(C)CCC(c2ccccc2)c2ccccc2)C1c1cccc([N+](=O)[O-])c1` (stereo not drawn) [compound 2361, methyl N-(3,3-diphenylpropyl)-N-methyl-4-aminobutyl 1,4-dihydro-2,6-dimethyl-4-(3-nitrophenyl)-pyridine-3,5-dicarboxylate], the ED25 in the data set with hypertensive rats (SHR) turned out to be 7.2 mg/kg. Moreover, the LD50 is 99 mg/kg in data set [1] (ip, read-out: LD50 i.p.) and 493 mg/kg in data set [1] (po, per os, read-out: LD50 os).
`COC(=O)C1=C(C)NC(C)=C(C(=O)OC(C)(C)CN(C)CCC(c2ccccc2)c2ccccc2)C1c1cccc([N+](=O)[O-])c1` (stereo not drawn) [compound 2375, methyl 1,1,N-trimethyl-N-(3,3-diphenylpropyl)-2-aminoethyl 1,4-dihydro-2,6-dimethyl-4-(3-nitrophenyl)-pyridine-3,5-dicarboxylate]: in the data set with hypertensive rats (SHR), the ED25 was determined as 2.6 mg/kg. The LD50 was determined as 83 mg/kg in data set [1] (ip, read-out: LD50 i.p.) and 657 mg/kg in data set [1] (po, per os, read-out: LD50 os). The molecule also came in with an ED50 in data set [2] of 0.082 mg/kg.
On to `CC1=C(C(=O)OCC(C)C)C(c2cccc(Cl)c2Cl)C(C(=O)OC(C)CN(C)CCC(c2ccccc2)c2ccccc2)=C(C)N1` (stereo not drawn) [compound 2383, isobutyl 1,N-dimethyl-N-(3,3-diphenylpropyl)-2-aminoethyl 1,4-dihydro-2,6-dimethyl-4-(2,3-dichlorophenyl)-pyridine-3,5-dicarboxylate], for which, in the data set with hypertensive rats (SHR), the ED25 worked out at 3.4 mg/kg. Further, the LD50 in data set [1] (po, per os, read-out: LD50 os) stood at 500 mg/kg.
